# Experiments:
# PDE7A1 = conditions: Figure 1, literature compounds; cited from earlier work
# PDE4D3 = conditions: Figure 1, literature compounds; cited from earlier work
# PDE4A4 = conditions: Figure 1, literature compounds; cited from earlier work
# [1] = biological target: T1, HEK293-PDE7B recombinant cell lines (Homo sapiens, UniProt Q9NP56); assay: In vitro cell uptake and blocking of [11C]27; format: cell-based
# T1 construct: host or cells: HEK293
# Procedure: Control study: HEK293-PDE7B Recombinant cells (catalog#60412, BPS Bioscience) and HEK293 control cells (catalog# CRL-1573, ATCC) – both in logarithmic growth phase – were plated in a 24 well plate (2 × 10^5 cells per well) and cultured overnight. After 24 hr, each well was added 2 μCi of [ 11C]27, and incubated at 37 °C for 30 min or 60 min. The radioactive medium was aspirated and collected in a tube. The residual cells were washed twice with PBS, and then collected in the same tube. The cells were lysed with 1 N NaOH (200 μL) and washed twice with PBS, all the resulting solutions were collected in one tube.
# The radioactivity in the collected supernatant and cell lysis buffer (600 μL/tube) was measured using a Cobra Model 5002/5003 gamma counter, respectively.
# Blocking study: HEK293-PDE7B cells in logarithmic growth phase were plated in 24 well plate (2 × 10^5 cells per well) and cultured overnight. After 24 h, each well was added 2 μCi of [11C]27 with or without unlabeled reference compound 27 or BRL50481, respectively. The resulting culture medium contained 2 μCi of [ 11C]27, 1 µM of unlabeled compound 27 or BRL50481, and 5% DMSO. Cells were incubated at 37 °C for 60 min and samples were collected as described for the control study. The cell uptake was calculated according to the following eq.: cell uptake% = A lysis buffer/(A lysis buffer+Asupernate) (n = 4)
# PDE7A = conditions: Figure 1, literature compounds; cited from earlier work
# PDE7B = conditions: Figure 1, literature compounds; cited from earlier work
# PDE7 [2] = conditions: Figure 1, literature compounds; cited from earlier work
# GSK3 = conditions: Figure 1, literature compounds; cited from earlier work
# [3] = Lipophilicity by shake-flask method; format: physicochemical; conditions: pH 7.4, n-octanol/PBS, n = 3
# Procedure: The general procedure for lipophilicity measurement was previously described, 4 with minor modification in this work. Briefly, the measurement of LogD value was carried out by mixing [11C]27 (radiochemical purity > 99%) with n-octanol (3.0 g) and PBS (0.1 M, 3.0 g) in a test tube. Both n-octanol and PBS were pre-saturated with each other prior to use. The tube was first vortexed for 5 min, followed by centrifugation (~3500-4000 rpm) for an additional 5 min. PBS and n-octanol were aliquoted, weighed and the radioactivity in each component was measured using a Cobra Model 5002/5003 gamma counter. The LogD was determined by Log [ratio of radioactivity in n-octanol and aqueous layer, respectively] (n = […]
# For the evaluation of plasma protein binding,5 55.5 MBq radiotracer was added to 150 μL of plasma, which was pre-incubated under 37 °C for 5 min (n = 3). The samples were incubated at 37 °C for 10 min. To each 150 μL of radiotracer-plasma solution was added 300 μL of ice-cold PBS and all samples were briefly vortexed. […] The radioactivity (in Becquerel) was measured in the protein fraction (Aprotein), filtrate, and filter unit using a gamma counter (Wizard, PerkinElmer), Atotal was calculated as the sum of radioactivity, and the free fraction f u was calculated according to the following eq.: f u = 1-
# [4] = In vitro stability of the formulated tracer (PBS with 10% ethanol; serum); format: in vitro ADME; conditions: 30, 60, 90 min; PBS containing 10% ethanol and serum of rodents, NHPs, humans
# PDE7 [5] = assay: microPET imaging in mice; format: in vivo, C57BL/6 mice; conditions: p.i.
# Procedure: C57BL/6 mice (female; 8 weeks, 20–25 g) and Sprague-Dawley rats (male;
# Rodent PET scans were carried out using a Genisys 4 PET (Sofie Biosciences, Culver, CA,
# manufacturer’s acquisition software. Volumes of interest, including whole brain, cortex,
# PDE7 [6] = assay: PET imaging in rats (baseline and self-blocking); format: in vivo, Sprague-Dawley rats; conditions: rats
# Procedure: page 10: All animal experiments were approved by the Institutional Animal Care and Use Committee of Massachusetts General Hospital or the National Institute of Radiological Sciences (Japan). C57BL/6 mice (female; 8 weeks, 20-25 g) and Sprague-Dawley rats (male; 8-9 weeks; 264-310 g) were kept on a 12 h light/12 h dark cycle and were allowed food and water ad libitum. Rodent PET scans were carried out using a […] (Sofie Biosciences, Culver, CA, USA) or a Siemens Inveon PET/CT system. Animals were kept under anesthesia using 1-2% (v/v) isoflurane in oxygen during the scan. The radiotracer (1.85 MBq for mice; 42-53 MBq for rats) was injected into the tail vein via a preinstalled catheter. A dynamic scan in 3D list mode was acquired for 60 min. The PET dynamic images were reconstructed using the manufacturer's acquisition software. Volumes of interest, including whole brain, cortex, striatum, hippocampus, thalamus and cerebellum were placed using AMIDE / PMOD software. The radioactivity was decay-corrected and expressed as standardized uptake value (SUV = radioactivity per mL tissue / injected radioactivity × bodyweight). S8
# PDE7 [7] = assay: PET imaging in nonhuman primates (baseline and self-blocking); format: in vivo, Cynomolgus monkeys; conditions: monkeys
# [8] = Whole-body ex vivo biodistribution; format: in vivo; conditions: CD-1 mice
# Procedure: PET imaging in nonhuman primates
# Cynomolgus monkeys used for PET/CT scan were deprived of food for 12h but allowed to drink water at any time. Animals (Male, bodyweight 5.0-5.2 kg) were anesthetized with ketamine, placed into the scanner (GE Discovery Elite 690, USA), and maintained with 2% isoflurane and 98% oxygen. A solution of [11C]27 (6.24–9.84 mCi) was injected into the monkey via a venous catheter, followed by a dynamic PET scan. For the blocking study, the blocking reagent reference compound 27 (0.4 or 1.0 mg/kg, iv) was used, followed by the injection of [11C]27. Time-activity curves of each brain region were extracted from the corresponding VOIs and brain uptake was decay-corrected and expressed as SUV. biodistribution studies in miceWhole-body ex vivo
# A solution of [11C]27 (1.85 MBq/100 µL) was injected into CD-1 mice via the tail vein.
# Animals were sacrificed at 5, 15, 30, and 60 min post radiotracer injection (n= 4 for each time point). […] The radioactivity in these tissues was measured using a Cobra Model 5002/5003 gamma counter, and all radioactivity measurements were decay corrected based on the half-life of carbon-11. The results are expressed as the percentage of injected dose per gram of wet tissue (%ID/g).
# [9] = Radiometabolite analysis in brain and plasma; format: in vivo, SD rats; conditions: n = 2; for parent fraction in plasma: rat plasma
# Procedure: After intravenous injection of [11C]27 through the tail vein, SD rats were sacrificed at 5 min and 30 min post injection. Blood samples were collected and centrifuged at 14,000 rpm for 3 min at 4 °C to separate the plasma. The supernatant was collected and added to an ice-cooled test tube containing 100 μL of CH 3CN. After vortex for 10 s, the mixture was centrifuged at 14000 rpm for 3 min at 4 °C for deproteinization. The supernatant was collected, and the process was repeated until no precipitations were observed when CH3CN was added. The rat brain was immediately dissected, homogenized with 400 μL of ice-cooled CH3CN, and then centrifuged at 14,000 rpm for 5 min at 4 °C. The supernatant was collected in a test tube containing 100 μL of ice-cooled CH 3CN, and the process (vortex and centrifuge) was repeated until no precipitations were observed when CH3CN was added. An aliquot of the supernatant (100 µL), obtained from the brain homogenate, was injected into and analyzed by a radio-HPLC system. The percentage of [11C]27 to total radioactivity (corrected for decay) on the HPLC charts was calculated as (peak area for [11C]27/total peak area) × 100. The same procedure was used for metabolite analysis in plasma.
# Statistical analysis was performed by Student’s two-tailed t-test, and asterisks were used to indicate statistical significance: * p < 0.05, ** p ≤ 0.01, *** p ≤ 0.001 and ****p < 0.0001.
# T1 sequence (Q9NP56 whole entry): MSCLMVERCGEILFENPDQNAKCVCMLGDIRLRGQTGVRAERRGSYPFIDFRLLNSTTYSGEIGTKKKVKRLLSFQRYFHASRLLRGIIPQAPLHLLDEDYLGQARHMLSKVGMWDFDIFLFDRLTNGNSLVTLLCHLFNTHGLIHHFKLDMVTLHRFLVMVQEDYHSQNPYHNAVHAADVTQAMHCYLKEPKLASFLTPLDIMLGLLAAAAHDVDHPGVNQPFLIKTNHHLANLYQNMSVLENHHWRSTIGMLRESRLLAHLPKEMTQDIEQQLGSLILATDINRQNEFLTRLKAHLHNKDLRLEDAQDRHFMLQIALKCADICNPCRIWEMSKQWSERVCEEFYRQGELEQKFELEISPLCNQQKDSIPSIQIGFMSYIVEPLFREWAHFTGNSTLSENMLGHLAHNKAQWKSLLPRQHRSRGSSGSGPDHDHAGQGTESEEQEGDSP
structure (smiles),measurement,setting,value
Cn1nc(-c2ccc(C(N)=O)cc2)s/c1=N\C1CCCCC1 [Compound 12],IC50,PDE7A1,61 nM
same,IC50,PDE4D3,15300 nM
O=C(Nc1ccc(N2CCOCC2)cc1)c1cn(Cc2c(F)cccc2Cl)c2ccc(=O)[nH]c2c1=O [Compound 13],IC50,PDE7A1,13 nM
same,IC50,PDE4A4,> 1000 nM
Cc1ccc([N+](=O)[O-])cc1S(=O)(=O)N(C)C [Compound 17],blockade of [11C]27 cell uptake,"[1]; blocker 1 μM, 60 min incubation, PDE7B overexpressing HEK293 cells, n = 4",~55%
same,IC50,PDE7A,150 nM
same,IC50,PDE7B,12100 nM
c1ccc(-c2nc(=NCc3cccnc3)sn2-c2ccccc2)cc1 [Compound 23],IC50,PDE7 [2],380 nM
same,IC50,GSK3,1280 nM
[11CH3]Oc1ccc(Cl)c2c1C1(CCCCC1)NC(=O)N2 [[^11C]27],logD,[3],3.67 ± 0.04
same,in vitro stability,[4],no obvious degradation or radiolysis was found
same,radioactivity uptake in HEK293-PDE7B cells versus control cells,[1]; 30 and 60 min incubation,6–7 fold
same,time to peak SUV in brain,PDE7 [5],≤ 2 min
same,plateau of brain uptake,PDE7 [6]; at 20 min postinjection,0.5 SUV
same,highest SUV values in brain,PDE7 [6]; at approximately 5 min postinjection,> 2 SUV
same,peak SUV (SUVmax) in brain,PDE7 [7]; baseline,3 SUV
same,time of peak SUV in brain,PDE7 [7]; p.i.,about 3 min
same,radioactivity accumulation in heart,[8]; 5 min p.i.,up to 24 % ID/g
same,cardiac uptake,[8]; within 60 min,less than 2%
same,intact parent fraction in brain,"[9]; rat brain, 5 min",More than 98%
same,parent fraction in brain homogenates,"[9]; rat brain, 30 min postinjection",more than 75%
same,parent fraction in plasma,[9]; 5 min p.i.,70% ± 18%
same,parent fraction in plasma,[9]; 30 min p.i.,19% ± 0.6%
